{"source": "the Kinase Knowledgebase extract (Sharma et al. 2016)"}
{"target": "PIK3CG (human) (UniProt P48736)", "sequence (P48736 whole entry, looked up)": "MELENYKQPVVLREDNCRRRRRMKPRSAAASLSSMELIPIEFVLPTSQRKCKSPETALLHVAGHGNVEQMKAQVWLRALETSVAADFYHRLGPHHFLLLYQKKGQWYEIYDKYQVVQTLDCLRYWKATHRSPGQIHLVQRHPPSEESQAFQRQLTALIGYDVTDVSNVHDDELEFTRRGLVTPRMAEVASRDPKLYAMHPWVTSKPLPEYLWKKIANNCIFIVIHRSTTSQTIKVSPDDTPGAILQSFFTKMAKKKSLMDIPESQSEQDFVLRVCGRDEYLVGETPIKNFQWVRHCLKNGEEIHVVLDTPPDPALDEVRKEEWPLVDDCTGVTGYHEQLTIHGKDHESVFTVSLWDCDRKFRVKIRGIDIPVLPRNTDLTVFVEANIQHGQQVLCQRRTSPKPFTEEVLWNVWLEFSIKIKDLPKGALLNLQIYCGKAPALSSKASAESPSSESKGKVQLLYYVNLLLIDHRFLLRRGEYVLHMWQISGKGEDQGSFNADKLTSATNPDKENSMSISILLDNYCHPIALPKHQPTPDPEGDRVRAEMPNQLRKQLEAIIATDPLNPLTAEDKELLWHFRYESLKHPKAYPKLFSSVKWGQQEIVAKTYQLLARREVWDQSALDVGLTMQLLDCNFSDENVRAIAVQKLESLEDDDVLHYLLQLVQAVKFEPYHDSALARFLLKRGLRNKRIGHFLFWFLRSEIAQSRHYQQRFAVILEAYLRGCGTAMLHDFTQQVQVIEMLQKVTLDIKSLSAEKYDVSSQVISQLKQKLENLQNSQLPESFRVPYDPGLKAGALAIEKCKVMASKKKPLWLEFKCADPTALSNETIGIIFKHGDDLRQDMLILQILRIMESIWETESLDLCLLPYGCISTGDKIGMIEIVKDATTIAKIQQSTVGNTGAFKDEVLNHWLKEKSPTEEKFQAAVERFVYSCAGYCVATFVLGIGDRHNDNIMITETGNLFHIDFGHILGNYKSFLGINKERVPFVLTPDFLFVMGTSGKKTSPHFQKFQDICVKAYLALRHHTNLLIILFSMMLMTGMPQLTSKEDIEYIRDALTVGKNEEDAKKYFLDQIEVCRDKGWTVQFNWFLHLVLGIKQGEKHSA", "experiment": "Inhibition of PIK3CG Kinase Activity", "units": {"IC50": "µM"}}
{"smiles": "O=C(Nc1nc2c(s1)-c1c(cnn1-c1ccccc1Cl)C2)N1CCC(N2Cc3ccccc3NC2=O)C1", "note": "(stereo not given)", "IC50": "< 0.8"}
{"smiles": "CCn1nc(CNC(=O)Nc2nc3c(s2)-c2c(cnn2-c2ccccc2C(F)(F)F)C3)cc1N", "IC50": "< 0.8"}
{"smiles": "CCCCNC(=O)Nc1nc2c(s1)-c1c(cnn1-c1ccccc1C(F)(F)F)C2", "IC50": "< 0.8"}
{"smiles": "O=C(NCCc1ccncc1)Nc1nc2c(s1)-c1c(cnn1-c1ccccc1Cl)C2", "IC50": "< 0.8"}
{"smiles": "O=C(NCc1cccc(C(=O)NC2CCCCC2)c1)Nc1nc2c(s1)-c1c(cnn1-c1ccccc1Cl)C2", "IC50": "< 0.8"}
{"smiles": "CCn1cnc(CCNC(=O)Nc2nc3c(s2)-c2c(cnn2-c2cc(F)ccc2C(F)(F)F)C3)c1", "IC50": "< 0.8"}
{"smiles": "Nc1cc(CCNC(=O)Nc2nc3c(s2)-c2c(cnn2-c2ccccc2C(F)(F)F)C3)nn1C1CCCC1", "IC50": "< 0.8"}
{"smiles": "O=C(NCCN1CCOCC1)Nc1nc2c(s1)-c1c(cnn1-c1ccccc1Br)C2", "IC50": "< 0.8"}
{"smiles": "O=C(Nc1nc2c(s1)-c1c(cnn1-c1ccccc1Cl)C2)N1CCCC(c2ccccc2O)C1", "note": "(stereo not given)", "IC50": "< 0.8"}
{"smiles": "O=C(NCCc1cccnc1)Nc1nc2c(s1)-c1c(cnn1-c1ccccc1Cl)C2", "IC50": "< 0.8"}
{"smiles": "CC(C)(O)Cn1cnc(CCNC(=O)Nc2nc3c(s2)-c2c(cnn2-c2ccccc2C(F)(F)F)C3)c1", "IC50": "< 0.8"}
{"smiles": "O=C(Nc1nc2c(s1)-c1c(cnn1-c1ccccc1Cl)C2)N1CCCCC1c1nc2ccccc2[nH]1", "note": "(stereo not given)", "IC50": "< 0.8"}
{"smiles": "O=C(NCc1nnc(-c2ccccc2)o1)Nc1nc2c(s1)-c1c(cnn1-c1ccccc1C(F)(F)F)C2", "IC50": "< 0.8"}
{"smiles": "CN1CCC(O)C2(CCCN(C(=O)Nc3nc4c(s3)-c3c(cnn3-c3ccccc3Cl)C4)C2)C1", "note": "(stereo not given)", "IC50": "< 0.8"}
{"smiles": "O=C(NCc1cccs1)Nc1nc2c(s1)-c1c(cnn1-c1ccccc1C(F)(F)F)C2", "IC50": "< 0.8"}
{"smiles": "CCc1noc(CCNC(=O)Nc2nc3c(s2)-c2c(cnn2-c2ccccc2Cl)C3)n1", "IC50": "< 0.8"}
{"smiles": "O=C(NCC1CCC(N2CCNC2=O)CC1)Nc1nc2c(s1)-c1c(cnn1-c1ccccc1Cl)C2", "note": "(stereo not given)", "IC50": "< 0.8"}
{"smiles": "CNC(=O)Nc1nc2c(s1)-c1c(cnn1-c1cc(Cl)ccc1Cl)C2", "IC50": "< 0.8"}
{"smiles": "O=C(NCc1ccco1)Nc1nc2c(s1)-c1c(cnn1-c1ccccc1C(F)(F)F)C2", "IC50": "< 0.8"}
{"smiles": "CCOC(=O)Cn1nc(CCNC(=O)Nc2nc3c(s2)-c2c(cnn2-c2ccccc2C(F)(F)F)C3)cc1N", "IC50": "< 0.8"}
{"smiles": "O=C(C[C@H]1CCCN1C(=O)OCc1ccccc1)Nc1nc2c(s1)-c1c(cnn1-c1ccccc1Cl)C2", "IC50": "< 0.8"}
{"smiles": "O=C(O)[C@H]1[C@H](c2ccccc2)CCN1C(=O)Nc1nc2c(s1)-c1c(cnn1-c1ccccc1Cl)C2", "IC50": "< 0.8"}
{"smiles": "CC(C)(C)OC(=O)CC1(O)CCN(C(=O)Nc2nc3c(s2)-c2c(cnn2-c2ccccc2Cl)C3)CC1", "IC50": "< 0.8"}
{"smiles": "CCc1noc(CCNC(=O)Nc2nc3c(s2)-c2c(cnn2-c2ccccc2C(F)(F)F)C3)n1", "IC50": "< 0.8"}
{"smiles": "CCc1csc(CCNC(=O)Nc2nc3c(s2)-c2c(cnn2-c2ccccc2C(F)(F)F)C3)n1", "IC50": "< 0.8"}
{"smiles": "CC(C)c1cnc(CCNC(=O)Nc2nc3c(s2)-c2c(cnn2-c2ccccc2C(F)(F)F)C3)o1", "IC50": "< 0.8"}
{"smiles": "NC(=O)c1cccc(CNC(=O)Nc2nc3c(s2)-c2c(cnn2-c2ccccc2Cl)C3)c1", "IC50": "< 0.8"}
{"smiles": "CCn1cnc(CCNC(=O)Nc2nc3c(s2)-c2c(cnn2-c2cc(Cl)ccc2Cl)C3)c1", "IC50": "< 0.8"}
{"smiles": "O=C(NCc1cocn1)Nc1nc2c(s1)-c1c(cnn1-c1ccccc1C(F)(F)F)C2", "IC50": "< 0.8"}
{"smiles": "CCCn1cnc(CCNC(=O)Nc2nc3c(s2)-c2c(cnn2-c2ccccc2Cl)C3)c1", "IC50": "< 0.8"}
{"smiles": "CC(C)(C)OC(=O)N1CCC[C@H]1CNC(=O)Nc1nc2c(s1)-c1c(cnn1-c1ccccc1Cl)C2", "IC50": "< 0.8"}
{"smiles": "CC(C)Cn1nc(CCNC(=O)Nc2nc3c(s2)-c2c(cnn2-c2ccccc2C(F)(F)F)C3)cc1N", "IC50": "< 0.8"}
{"smiles": "CC(C)(C)OC(=O)N[C@H]1CC[C@H](CNC(=O)Nc2nc3c(s2)-c2c(cnn2-c2ccccc2Cl)C3)CC1", "IC50": "< 0.8"}
{"smiles": "CCc1nnc(CCNC(=O)Nc2nc3c(s2)-c2c(cnn2-c2ccccc2Cl)C3)o1", "IC50": "< 0.8"}
{"smiles": "CC(C)(C)OC(=O)NCc1ccccc1NC(=O)Nc1nc2c(s1)-c1c(cnn1-c1ccccc1Cl)C2", "IC50": "< 0.8"}
{"smiles": "Cn1nc(CNC(=O)Nc2nc3c(s2)-c2c(cnn2-c2ccccc2C(F)(F)F)C3)cc1O", "IC50": "< 0.8"}
{"smiles": "CC(C)(C)OC(=O)N1CCC[C@@H]1CNC(=O)Nc1nc2c(s1)-c1c(cnn1-c1ccccc1C(F)(F)F)C2", "IC50": "< 0.8"}
{"smiles": "CC(C)(C)OC(=O)CCNC(=O)Nc1nc2c(s1)-c1c(cnn1-c1ccccc1Cl)C2", "IC50": "< 0.8"}
{"smiles": "CCn1nc(CCNC(=O)Nc2nc3c(s2)-c2c(cnn2-c2ccccc2C(F)(F)F)C3)cc1N", "IC50": "< 0.8"}
{"smiles": "O=C(NCc1nccs1)Nc1nc2c(s1)-c1c(cnn1-c1ccccc1C(F)(F)F)C2", "IC50": "< 0.8"}
{"smiles": "CN(CCc1cn[nH]c1)C(=O)Nc1nc2c(s1)-c1c(cnn1-c1ccccc1C(F)(F)F)C2", "IC50": "< 0.8"}
{"smiles": "Cn1cc(CCNC(=O)Nc2nc3c(s2)-c2c(cnn2-c2ccccc2C(F)(F)F)C3)cn1", "IC50": "< 0.8"}
{"smiles": "CCCCn1nc(CCNC(=O)Nc2nc3c(s2)-c2c(cnn2-c2ccccc2C(F)(F)F)C3)cc1N", "IC50": "< 0.8"}
{"smiles": "C=CCn1cnc(CCNC(=O)Nc2nc3c(s2)-c2c(cnn2-c2ccccc2C(F)(F)F)C3)c1", "IC50": "< 0.8"}
{"smiles": "CCCNC(=O)Nc1nc2c(s1)-c1c(cnn1-c1ccccc1C(F)(F)F)C2", "IC50": "< 0.8"}
